Laboratory results as given in PubChem BioAssay (NCI).
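Each compound was tested at five concentrations against cells in 96-well plates for 48 hours. Abbreviation: GI50, concentration required for 50% inhibition of growth. The concentration for full growth arrest is given as TGI.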

Tests used:
Assay in all cases: growth of human tumour cells (NCI), 48 h
MOLT-4 leukemia = tested on: MOLT-4 leukemia
OVCAR-8 ovarian = tested on: OVCAR-8 ovarian
HT29 colon = tested on: HT29 colon
SF-295 CNS = tested on: SF-295 CNS
A549 NSCLC = tested on: A549 NSCLC
BT-549 breast = tested on: BT-549 breast
HL-60(TB) leukemia = tested on: HL-60(TB) leukemia
MDA-MB-231 breast = tested on: MDA-MB-231 breast
NCI-H460 lung = tested on: NCI-H460 lung
NCI-H522 lung = tested on: NCI-H522 lung

Row | SMILES | TGI (MOLT-4 leukemia) | TGI (OVCAR-8 ovarian) | TGI (HT29 colon) | TGI (SF-295 CNS) | TGI (A549 NSCLC) | TGI (BT-549 breast) | TGI (HL-60(TB) leukemia) | TGI (MDA-MB-231 breast) | TGI (NCI-H460 lung) | TGI (NCI-H522 lung) | GI50 (HL-60(TB) leukemia) | GI50 (NCI-H522 lung)
1 | CN1C(c2ccccc2)=CC(=O)C(O)=C(c2ccccc2)S1(=O)=O | > 100 µM | > 100 µM | > 100 µM | > 100 µM | > 100 µM | > 100 µM | > 100 µM | > 100 µM | > 100 µM | > 100 µM |  | 
2 | CC(=O)O[C@H]1C[C@]2(C)C(CCC3O[C@@]32C)[C@@]2(CC(c3ccoc3)OC2O)[C@@H]1C (some centres not stated) | 93 µM | > 100 µM | > 100 µM | > 100 µM | > 100 µM | > 100 µM | 52 µM | > 100 µM | > 100 µM | > 100 µM |  | 
3 | O=C(CSc1nc(=O)[nH]c2nc[nH]c12)Nc1ccccc1 | > 100 µM | > 100 µM | > 100 µM | > 100 µM | > 100 µM | > 100 µM | > 100 µM | > 100 µM | > 100 µM | > 100 µM |  | 
4 | Nc1nc(Cl)cc(NCC2(CO)CCC(Cc3ccccc3)C2)n1 (configuration not stated) | 30.6 µM | > 100 µM | > 69.4 µM | > 100 µM | > 100 µM | 78.7 µM | 26.1 µM | > 100 µM | > 100 µM | 49 µM |  | 
5 | O=C(Oc1ccccc1)c1cc2cc(CCl)ccc2oc1=O | > 100 µM | > 100 µM | > 100 µM | 98.4 µM | > 100 µM | > 100 µM | > 100 µM | 82 µM | 51.6 µM | 24.6 µM |  | 
6 | Cc1ccc(/C=C/C(=O)c2c([O-])on[n+]2-c2ccccc2)cc1 | 6.64 µM | 4.05 µM | 3.84 µM | > 46.4 µM | 25 µM | 6.09 µM | 6.55 µM | > 75.2 µM | 6.38 µM | 8.06 µM |  | 
7 | O=C1c2ccccc2-c2nc(-c3cccnc3)cc3c2c1nc1ccccc13 | > 100 µM | > 100 µM | > 100 µM | > 100 µM | > 100 µM | > 100 µM | > 100 µM | > 100 µM | > 100 µM | > 100 µM |  | 
8 | CC(NS(C)(=O)=O)c1ccccc1 (configuration not stated) | > 100 µM | > 100 µM | > 100 µM | > 100 µM | > 100 µM | > 100 µM | > 100 µM | > 100 µM | > 100 µM | > 100 µM |  | 
9 | O=C1C2C=CC1C1C(=O)OC(=O)C21 (configuration not stated) | > 100 µM | > 100 µM | > 100 µM | > 100 µM | > 100 µM | > 100 µM | > 100 µM | > 100 µM | > 100 µM | > 100 µM |  | 
10 | Cc1ccc2c(c1)NC(=O)CCSSCCC(=O)N2 | > 100 µM | > 100 µM | > 100 µM | > 100 µM | > 100 µM | > 100 µM | > 100 µM | > 100 µM | > 100 µM | > 100 µM |  | 
11 | COC(=O)C(CCC1C=CCC1)N=Cc1ccccc1 (configuration not stated) | > 100 µM | > 100 µM | > 100 µM | > 100 µM | > 100 µM | > 100 µM | > 100 µM | > 100 µM | > 100 µM | > 100 µM |  | 
12 | NC1C/C(=N\O)c2c(I)sc(I)c21 (configuration not stated) | > 100 µM | 29.1 µM | 48.8 µM | 31.8 µM | 46.4 µM | 29.9 µM | > 100 µM | 39.3 µM | 52 µM | 3.7 µM |  | 
13 | CC(=O)Oc1ccc2c(c1)c1c(=O)oc(N(C)C)nc1n2Cc1ccccc1 | > 100 µM | > 100 µM | > 100 µM | > 100 µM | > 100 µM | > 100 µM | > 100 µM | > 100 µM | > 100 µM | > 100 µM |  | 
14 | O=C(O)CSc1cc(-c2ccccc2)nc2ccccc12 | > 100 µM | > 100 µM | > 100 µM | > 100 µM | > 100 µM | > 100 µM | 58.2 µM | > 100 µM | > 100 µM | 70.9 µM |  | 
15 | NC1CC(=O)c2csc(Br)c21 (configuration not stated) | 46.8 µM | 33.6 µM | 43.8 µM | > 100 µM | > 100 µM | 26.5 µM | 61.3 µM | > 53.6 µM | > 67.4 µM | 8.21 µM |  | 
16 | C1COC(NC(C2CC2)C2CC2)=N1 | > 100 µM | > 100 µM | > 100 µM | > 100 µM | > 100 µM | > 100 µM | > 100 µM | > 100 µM | > 100 µM | > 100 µM |  | 
17 | O=C1OC(c2ccc(O)c(Cl)c2)(c2ccc(O)c(Cl)c2)c2ccc(Br)c3cccc1c23 (tested in a mixture with another compound) | 41.8 µM | 51.9 µM | 29.3 µM | 36.6 µM | 38.9 µM | 18.6 µM | 41.8 µM | 29.4 µM | 34.7 µM | 35.7 µM | 17.5 µM | 17.8 µM
18 | CCCN1C(=O)CCC2=C1CCc1c2ccc(Cl)c1Cl | > 100 µM | > 100 µM | > 100 µM | > 100 µM | > 100 µM | > 100 µM | 86.2 µM | 48.7 µM | > 100 µM | 91.4 µM |  | 
19 | O=C(CN1CCN(C(=O)OCc2ccccc2)CCN(CC(=O)N2CCCCC2)CCN(C(=O)OCc2ccccc2)CC1)N1CCCCC1 | > 46 µM | 33.8 µM | 28.6 µM | 41.1 µM | > 53.5 µM | > 50.5 µM | > 35.4 µM | 33.7 µM | 26.7 µM | 19 µM |  | 
20 | N#Cc1c(-c2ccccc2)/c(=C\O)c(=O)n2c1nc1ccccc12 | > 100 µM | > 100 µM | > 100 µM | > 100 µM | > 100 µM | > 100 µM | > 100 µM | > 100 µM | > 100 µM | > 100 µM |  | 
21 | O=C(/C=C/c1ccc(O)c(O)c1)OCCc1cccc2ccccc12 | 12.3 µM | 19.9 µM | 27.5 µM | 17.9 µM | 19.7 µM | 21.2 µM | 3.52 µM | 7.56 µM | 29.9 µM | 4.17 µM |  | 
22 | COc1ccc2c3c1OC1C(=O)C=CC4(O)C(C2)NCC[C@@]314 (some centres not stated) | 9.13 µM | 6.36 µM | 11.7 µM | 14.9 µM | 18.2 µM | 6.32 µM | 4.4 µM | 9.01 µM | 13.2 µM | 1.99 µM |  | 
23 | CCSC1=N/C(=C\c2ccccc2O)C(Nc2ccc(C)cc2)=N1 | > 100 µM | > 100 µM | > 100 µM | > 100 µM | > 100 µM | > 100 µM | > 100 µM | > 100 µM | > 100 µM | 94.4 µM |  | 
24 | OCCN(CCO)c1ccc2c(C(F)(F)F)cc(C(F)(F)F)nc2n1 | > 100 µM | > 100 µM | > 100 µM | > 100 µM | > 100 µM | > 100 µM | > 100 µM | > 100 µM | > 100 µM | > 100 µM |  | 
25 | COC(=O)NCCc1[nH]nc2c1C(=O)C=C(Nc1ccccc1)C2=O | 54.4 µM | 40.2 µM | > 100 µM | > 100 µM | > 100 µM | > 100 µM | 46.3 µM | 87.7 µM | > 100 µM | 28.6 µM |  | 
26 | CC(C)C(C/C=C1/CC(CO)(COC(=O)CC(C(C)C)C(C)C)OC1=O)C(C)C (configuration not stated) | 32.7 µM | 29.7 µM | 30.5 µM | 16.5 µM | 14.6 µM | 28.7 µM | 11.7 µM | 18.5 µM | 20 µM | 26.5 µM |  | 
27 | CN1CCC2(CC1)C(=O)N(N1CCCCCC1)C(=O)N2c1ccccc1 | > 100 µM | > 100 µM | > 100 µM | > 100 µM | > 100 µM | > 100 µM | > 100 µM | > 100 µM | > 100 µM | > 100 µM |  | 
28 | COc1ccc(C2SCC(=O)N2c2ccc(-c3ccc(-n4c(-c5ccccc5)nc5ccccc5c4=O)cc3)cc2)cc1 (configuration not stated) | > 100 µM | > 100 µM | 30.5 µM | > 100 µM | > 100 µM | > 100 µM | > 100 µM | > 100 µM | > 100 µM | > 100 µM |  | 
29 | N#CCC(=O)Nn1c(CC#N)nnc1Cc1ccccc1 | > 100 µM | > 100 µM | > 100 µM | > 100 µM | > 100 µM | > 100 µM | > 100 µM | > 100 µM | > 100 µM | > 100 µM |  | 
30 | O=C(Cn1nc(Br)c(Br)c1Br)c1ccccc1 | 12.3 µM | > 100 µM | 43.5 µM | 91.5 µM | 89.7 µM | 80.4 µM | 30.5 µM | 84.5 µM | 63.9 µM | 83.6 µM |  | 
